# Assay results as given in US7135466B2 (Kirin Beer Kabushiki Kaisha, priority 1999, dated 2006).
# Molecular target: T1, PDGF-Ra (Homo sapiens, UniProt P16234)
# T1 construct: host or cells: G-292 human osteosarcoma cells
# Assay: Inhibitory activity against PDGF-Ra phosphorylation by PDGF-AA stimulation using G292
# Assay type: cell-based
# Settings: for IC50: > means inhibition at indicated concentration not more than 50%, < and << not less than 50%, read-out: PDGF (E) IC50; for inhibition at 0.1 µM: G292, figure within parentheses in >100( ), at 100 nM, read-out: PDGF (E) inhibition (%) at 100 nM
# Protocol: Measurement of Inhibitory Activity Against PDGF-Ra Phosphorylation by PDGF-AA Stimulation Using G292
# G-292 human osteosarcoma cells (Dainippon Pharmaceutical Co. Ltd.) were cultured in a DMEM medium (Dainippon Pharmaceutical Co. Ltd.) containing 10% FBS within an incubator containing 5% carbon dioxide until 80% confluent, and the cells were planted at 3×10^4 cells per well in 96-well flat-bottom plates in the same medium containing 0.1% FBS. After cultivation at 37° C. overnight, a solution of a test compound in dimethyl sulfoxide was added to each well, and a reaction was allowed to proceed at 37° C. for one hr.
# After the reaction of the test compound, PDGF-AA (Upstate) was added to 50 ng/ml, and the cells were stimulated at 37° C. for 5 min. Thereafter, the cells were solubilized and shaken at room temperature for 20 min.
# This solubilized cell solution was transferred to a 96-well plate coated with aniti-phosphotyrosine antibody PY-20, and a reaction was allowed to proceed at 4° C. overnight. Anti-PDGF-Ra (c-20) (Santa Cruz) was added as a primary antibody, and a reaction was allowed to proceed for one hr. GAR (Anti-rabbit Ig, horseradish peroxidase, Amersham) was then added as a secondary antibody, and a reaction was allowed to proceed for one hr. Color development was carried out using a color development kit for peroxidase (Sumitomo Bakelite Co., Ltd.), and the absorbance was measured at 450 nm.
# T1 sequence (P16234 24-1089): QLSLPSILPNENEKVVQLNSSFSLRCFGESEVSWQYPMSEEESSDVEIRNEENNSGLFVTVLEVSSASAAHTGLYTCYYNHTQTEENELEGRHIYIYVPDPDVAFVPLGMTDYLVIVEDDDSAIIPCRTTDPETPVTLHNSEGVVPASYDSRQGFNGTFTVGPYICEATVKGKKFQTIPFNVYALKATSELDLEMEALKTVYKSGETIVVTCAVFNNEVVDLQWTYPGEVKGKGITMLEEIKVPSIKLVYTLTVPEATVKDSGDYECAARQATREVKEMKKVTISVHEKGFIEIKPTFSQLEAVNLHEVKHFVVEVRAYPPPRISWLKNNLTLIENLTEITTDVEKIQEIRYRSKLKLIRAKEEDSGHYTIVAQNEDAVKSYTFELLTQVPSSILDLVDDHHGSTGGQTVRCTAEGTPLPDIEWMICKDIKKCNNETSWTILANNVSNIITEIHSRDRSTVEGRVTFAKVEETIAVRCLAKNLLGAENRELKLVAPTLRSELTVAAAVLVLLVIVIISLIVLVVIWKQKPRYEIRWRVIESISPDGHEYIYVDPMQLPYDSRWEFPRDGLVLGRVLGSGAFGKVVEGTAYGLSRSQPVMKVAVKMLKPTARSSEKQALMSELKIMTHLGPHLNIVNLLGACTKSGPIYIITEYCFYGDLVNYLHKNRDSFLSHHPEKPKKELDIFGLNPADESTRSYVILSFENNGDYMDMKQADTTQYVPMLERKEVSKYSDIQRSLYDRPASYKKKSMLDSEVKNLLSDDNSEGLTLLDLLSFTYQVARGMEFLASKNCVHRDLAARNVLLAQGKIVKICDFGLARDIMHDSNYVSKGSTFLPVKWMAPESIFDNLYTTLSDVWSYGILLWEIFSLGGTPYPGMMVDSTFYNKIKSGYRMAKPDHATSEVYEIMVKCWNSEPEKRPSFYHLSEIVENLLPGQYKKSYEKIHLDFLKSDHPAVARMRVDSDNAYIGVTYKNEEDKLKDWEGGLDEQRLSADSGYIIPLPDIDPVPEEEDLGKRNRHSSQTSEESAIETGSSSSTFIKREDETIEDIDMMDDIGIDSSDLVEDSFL
IC50 [nM],inhibition at 0.1 µM [%],SMILES
29,,"COc1cc2nccc(Oc3ccc(NC(=S)NCCN4CCCCC4)c(C)c3C)c2cc1OC [Example 512, N-{4-[(6,7-Dimethoxy-4-quinolyl)oxy]-2,3-dimethylphenyl}-N′-(2-piperidinylethyl)thiourea]"
> 100,17,"COc1cc2ncnc(Oc3ccc(NC(=S)NC4CCN(Cc5ccccc5)CC4)cc3)c2cc1OC [Example 518, N-{4-[(6,7-Dimethoxy-4-quinazolinyl)oxy]phenyl}-N′-[4-(1-benzylpiperidinyl)]thiourea]"
> 100,22,COc1cc2ncnc(Oc3ccc(NC(=S)NCCNC(C)=O)cc3)c2cc1OC [Example 519]
> 100,43,"COc1cc2nccc(Oc3ccc(NC(=S)NNC4CCCCC4)c(C)c3C)c2cc1OC [Example 520, N-{4-[(6,7-Dimethoxy-4-quinolyl)oxy]-2,3-dimethylphenyl}-N′-(N-cyclohexylamino)thiourea]"
> 100,,"COc1cc2nccc(Oc3ccc(NC(=S)NN4CCCCC4)c(C)c3C)c2cc1OC [Example 521, N-{4-[(6,7-Dimethoxy-4-quinolyl)oxy]-2,3-dimethylphenyl}-N′-(1-piperidinyl)thiourea]"
> 100,,"COc1cc2nccc(Oc3cc(C)c(NC(=S)NN4CCCCC4)cc3C)c2cc1OC [Example 522, N-{4-[(6,7-Dimethoxy-4-quinolyl)oxy]-2,5-dimethylphenyl}-N′-(1-piperidinyl)thiourea]"
> 100,19,"CCN(CC)CCCNC(=S)Nc1cc(C)c(Oc2ccnc3cc(OC)c(OC)cc23)cc1C [Example 551, N-{4-[(6,7-Dimethoxy-4-quinolyl)oxy]-2,5-dimethylphenyl}-N′-(3-diethylaminopropyl)thiourea]"
> 100,14,"COc1cc2nccc(Oc3cc(C)c(NC(=S)NCCCN4CCCCC4C)cc3C)c2cc1OC (centres unmarked) [Example 554, N-{4-[(6,7-Dimethoxy-4-quinolyl)oxy]-2,5-dimethylphenyl}-N′-[3-(2-methylpiperidinyl)propyl]thiourea]"
> 100,32,"COc1cc2nccc(Oc3ccc(NC(=O)NC4CCN(CC5CCCCC5)C4)cc3)c2cc1OC (centres unmarked) [Example 585, N-[1-(Cyclohexylmethyl)tetrahydro-1H-3-pyrrolyl]-N′-{4-[(6,7-dimethoxy-4-quinolyl)oxy]phenyl}urea]"
36,,"CCN(CC)C(C)CNC(=S)Nc1ccc(Oc2ccnc3cc(OC)c(OC)cc23)cc1 (centres unmarked) [Example 588, N-{4-[(6,7-Dimethoxy-4-quinolyl)oxy]phenyl}-N′-(2-diethylaminopropyl)thiourea]"
51,,"COc1cc2nccc(Oc3ccc(NC(=O)NN4CCCCC4)c(C)c3C)c2cc1OC [Example 593, N-{4-[(6,7-Dimethoxy-4-quinolyl)oxy]-2,3-dimethylphenyl}-N′-(1-piperidinyl)urea]"
39,,"CCN(CC)CCNC(=O)Nc1ccc(Oc2ccnc3cc(OC)c(OC)cc23)cc1C [Example 649, N-[2-(Diethylamino)ethyl]-N′-{4-[(6,7-dimethoxy-4-quinolyl)oxy]-2-methylphenyl}urea]"
19,,"COc1cc2ncnc(Oc3ccc(NC(=O)NCCN(C(C)C)C(C)C)c([N+](=O)[O-])c3)c2cc1OC [Example 659, N-[2-(Diisopropylamino)ethyl]-N′-{4-[(6,7-dimethoxy-4-quinazolinyl)oxy]-2-nitrophenyl}urea]"
83,,"COc1ccc(CCC(=O)NC(=S)Nc2ccc(Oc3ccnc4cc(OC)c(OC)cc34)c(Cl)c2)cc1OC [Example 712, N-{3-Chloro-4-[(6,7-dimethoxy-4-quinolyl)oxy]phenyl}-N′-[3-(3,4-dimethoxyphenyl)propanoyl]thiourea]"
> 100,8,"COc1cc2nccc(Oc3cc(C)c(NC(=S)NC(=O)c4cc(C)oc4C)cc3C)c2cc1OC [Example 717, N-{4-[(6,7-Dimethoxy-4-quinolyl)oxy]-2,5-dimethylphenyl}-N′-[(2 5-dimethyl-3-furyl)carbonyl]thiourea]"
52,,"COc1cc2nccc(Oc3ccc(NC(=S)NC(=O)CCCCc4ccccc4)cc3)c2cc1OC [Example 727, N-{4-[(6,7-Dimethoxy-4-quinolyl)oxy]phenyl}-N′-(5-phenylpentanoyl)thiourea]"

IC50 [nM],inhibition at 0.1 µM [%],SMILES
48,,"COc1cc2nccc(Oc3ccc(NC(=S)NC(=O)CCc4ccccc4C)cc3Cl)c2cc1OC [Example 732, N-{3-Chloro-4-[(6,7-dimethoxy-4-quinolyl)oxy]phenyl}-N′-[3-(2-methylphenyl)propanoyl]thiourea]"
15,,"COc1cc2nccc(Oc3ccc(NC(=S)NC(=O)Cc4ccccc4[N+](=O)[O-])cc3)c2cc1OC [Example 735, N-{4-[(6,7-Dimethoxy-4-quinolyl)oxy]phenyl}-N′-[2-(2-nitrophenyl)acetyl]thiourea]"
72,,"COc1cc2nccc(Oc3ccc(NC(=S)NC(=O)Cc4ccccc4[N+](=O)[O-])cc3Cl)c2cc1OC [Example 736, N-{3-Chloro-4-[(6,7-dimethoxy-4-quinolyl)oxy]phenyl}-N′-[2-(2-nitrophenyl)acetyl]thiourea]"
49,,"CCC(Oc1ccccc1)C(=O)NC(=S)Nc1ccc(Oc2ccnc3cc(OC)c(OC)cc23)cc1 (centres unmarked) [Example 741, N-{4-[(6,7-Dimethoxy-4-quinolyl)oxy]phenyl}-N′-(2-phenoxybutanoyl)thiourea]"
92,,"CCC(Oc1ccccc1)C(=O)NC(=S)Nc1ccc(Oc2ccnc3cc(OC)c(OC)cc23)c(Cl)c1 (centres unmarked) [Example 742, N-{3-Chloro-4-[(6,7-dimethoxy-4-quinolyl)oxy]phenyl}-N′-(2-phenoxybutanoyl)thiourea]"
40,,"COc1cc2nccc(Oc3ccc(NC(=S)NC(=O)[C@H](C)c4ccccc4)cc3Cl)c2cc1OC [Example 744, N-{3-Chloro-4-[(6,7-dimethoxy-4-quinolyl)oxy]phenyl}-N′-[(2R)-2-phenylpropanoyl]thiourea]"
53,,"COc1cc2nccc(Oc3ccc(NC(=S)NC(=O)C(C)Oc4ccccc4)cc3)c2cc1OC (centres unmarked) [Example 745, N-{4-[(6,7-Dimethoxy-4-quinolyl)oxy]phenyl}-N′-(2-phenoxypropanoyl)thiourea]"
> 100,31,"COc1cc2nccc(Oc3ccc(NC(=S)NC(=O)C(C)Oc4ccccc4)cc3Cl)c2cc1OC (centres unmarked) [Example 746, N-{3-Chloro-4-[(6,7-dimethoxy-4-quinolyl)oxy]phenyl}-N′-(2-phenoxypropanoyl)thiourea]"
85,,"CCC(C(=O)NC(=S)Nc1ccc(Oc2ccnc3cc(OC)c(OC)cc23)c(Cl)c1)c1ccccc1 (centres unmarked) [Example 748, N-{3-Chloro-4-[(6,7-dimethoxy-4-quinolyl)oxy]phenyl}-N′-(2-phenylbutanoyl)thiourea]"
> 100,7,"CCCCCOc1ccc(C(=O)NC(=S)Nc2ccc(Oc3ccnc4cc(OC)c(OC)cc34)c(Cl)c2)cc1 [Example 754, N-{3-Chloro-4-[(6,7-dimethoxy-4-quinolyl)oxy]phenyl}-N′-[4-(pentyloxy)benzoyl]thiourea]"
> 100,3,"CCCCCCOc1ccc(C(=O)NC(=S)Nc2ccc(Oc3ccnc4cc(OC)c(OC)cc34)cc2)cc1 [Example 755, N-{4-[(6,7-Dimethoxy-4-quinolyl)oxy]phenyl}-N′-[4-(hexyloxy)benzoyl]thiourea]"
> 100,45,"COc1cc2nccc(Oc3ccc(NC(=S)NC(=O)C(C)(C)Oc4ccc(Cl)cc4)cc3)c2cc1OC [Example 757, N-[2-(4-Chlorophenoxy)-2-methylpropanoyl]-N′-{4-[(6,7-dimethoxy-4-quinolyl)oxy]phenyl}thiourea]"
> 100,18,"COc1cc2nccc(Oc3ccc(NC(=S)NC(=O)C(C)(C)Oc4ccc(Cl)cc4)cc3Cl)c2cc1OC [Example 758, N-{3-Chloro-4-[(6,7-dimethoxy-4-quinolyl)oxy]phenyl}-N′-[2-(4-chlorophenoxy)-2-methylpropanoyl]thiourea]"
> 100,,"COc1cc2nccc(Oc3ccc(NC(=S)NC(=O)C(OC)c4ccccc4)cc3Cl)c2cc1OC (centres unmarked) [Example 762, N-{3-Chloro-4-[(6,7-dimethoxy-4-quinolyl)oxy]phenyl}-N′-(2-methoxy-2-phenylacetyl)thiourea]"
> 100,45,"COc1cc2nccc(Oc3ccc(NC(=S)NC(=O)C4CCCO4)cc3Cl)c2cc1OC (centres unmarked) [Example 766, N-{3-Chloro-4-[(6,7-dimethoxy-4-quinolyl)oxy]phenyl}-N′-tetrahydro-2-furanylcarbonylthiourea]"
> 100,,"COc1cc2ncnc(Oc3ccc(O)cc3)c2cc1OC [Example 773, 4-[(6,7-Dimethoxy-4-quinazolinyl)oxy]phenol]"

SMILES,IC50 [nM],inhibition at 0.1 µM [%]
"CCCCOc1ccc(C(=O)NC(=S)Nc2ccc(Oc3ccnc4cc(OC)c(OC)cc34)c(Cl)c2)cc1 [Example 752, N-(4-Butoxybenzoyl)-N′-{3-chloro-4-[(6,7-dimethoxy-4-quinolyl)oxy]phenyl}thiourea]",> 100,37
